Data on four compounds can be found in US20110172301A1, “Use of anti-oxidant compounds for muscle recovery” (DSM IP ASSETS B.V., priority 2004, published 2011).

The IC50 is the concentration at which inhibition is half-maximal.

Bounds are passed on as bounds.

Assay [1] is described as follows: O2•- scavenging (xanthine/xanthine oxidase, NBT reduction). Format: biochemical. Particulars: 50% decrease in the reduction of NBT; xanthine 150 μM, XO 5.5 mU/ml, pH 7.8, 37° C., n = 3; read-out: O2•− scavenging activity, IC50 ± SEM. As to the method:
O2•- were generated by the reaction of xanthine (150 μM) and xanthine oxidase (XO) (5.5 mU/ml) in 50 mM potassium phosphate buffer (pH 7.8). O2•-radicals were detected by nitroblue tetrazolium (NBT, 50 μM). NBT undergoes reduction by O2•- to its formazan. The rate of this reduction was monitored spectrophotometrically at 560 nm during 2 minutes. Various concentrations of a scavenger were added and incubated at 37° C. The reaction was started by the addition of XO. The O2•-scavenging potential is expressed as the concentration of the scavenger giving a 50% decrease in the reduction of NBT (IC50).
To adjust for a possible inhibitory effect of the scavenger on the activity of XO, the highest concentration of the scavenger was incubated at 37° C. and subsequently the rate of the urate formation was measured at 293 nm during 2 minutes.

A short description of assay [2]: ONOOH scavenging (protection against ONOOH induced DHR-123 oxidation). In kind it is biochemical. To be noted: 50% inhibition of oxidation of DHR-123; 5 μM DHR-123, 0.7 μM ONOOH, pH 7.4, 37° C., n = 3; read-out: ONOO− scavenging activity, IC50 ± SEM. As to the method: The protection against ONOOH induced DHR-123 oxidation of the compounds was measured as described by Kooy et al (Peroxynitrite-mediated oxidation of dihydrorhodamine 123. Free Radic Biol Med, 16; 149-56). In short, 5 μM DHR-123 and various concentrations of a scavenger were incubated in 100 mM sodium phosphate buffer (pH 7.4) at 37° C. Subsequently, ONOOH was added by pipetting a 10 μl aliquot into the tube while rapid vortexing, reaching a final concentration of 0.7 μM. Fluorescence measurements were performed with excitation and emission wavelengths of respectively 500 and 536 nm. The effects are expressed as the concentration of the scavenger giving 50% inhibition of the oxidation of DHR-123 (IC50).

For assay [3], the system named is diaphragm muscle strips. Description: Organ bath experiments: force of diaphragm strips after H2O2 incubation. To be noted: all applied stimulation frequencies, compared with control; FIG. 1. The arrangement: species or system Male Lewis rats. The source says: Male Lewis rats (age between 12 and 14 weeks old) were used. After decapitation, the diaphragm was rapidly excised, and small strips (around 2 mm width and 1 cm long) were cut and subsequently mounted in thermostated organ baths, containing Krebs buffer gassed with a mixture of 95% O2 and 5% CO2, pH 7.4. Each diaphragm strip was connected vertically to an isometric transducer. The composition of the Krebs buffer was (mM): NaCl (117.5), KCl (5.6), MgSO4 (1.18), CaCl2 (2.5), NaHPO4 (1.28), NaHCO3 (25) and glucose (5.5). During the experiment, the buffer was changed every 15 minutes. Field stimulation was created along the entire length of each muscle strip with platinum electrodes. At the beginning of the experiment, the strips were washed during 45 minutes at room temperature to minimize temperature dependent deterioration. Thereafter, the water bath was turned on at 37° C. (15 minutes before the start of the experiments). […] First the Pt (twitch tension at a stimulation of 1 Hz) and Po (maximal specific tension at a stimulation of 100 Hz, 250 ms duration) were determined. Thereafter, the response of the diaphragm muscle strips to increasing stimulus frequencies was assessed at Lo by the application of 10, 20, 33, 50 and 100 Hz-pulses applied in 250 ms trains. […] After that were again determined: Pt, Po, force-frequency and fatigue.

Consider `OCCc1ccc(O)cc1` [Tyrosol], for which the half-maximal inhibitory concentration (IC50) is > 200 µM in assay [1] and 99 ± 16 µM in assay [2].
On the same counts, the results for `COc1cc(CCO)ccc1O` [Homovanillic alcohol] are > 200 µM and 6.6 ± 0.2 µM.
For `O=C(O)CCCC[C@@H]1CCSS1` (racemic) [Lipoic acid, reference compound], the IC50 in assay [1] was > 100 µM; in assay [2] it was > 200 µM.
For `OO` [H2O2, hydrogen peroxide], the “effect on muscle force” value in assay [3] is “dose-dependently reduces the force”.
